Patent publication US8008291B2 (Mimetica Pty Ltd, priority 2008, dated 2011)
pIC50: −log10 of the molar value.

Target: T1, human MC5R (hMC5R) (Homo sapiens, UniProt P33032)
T1 construct: purchased Perkin Elmer RBXMC5M400UA
Assay: Human MC5R radioligand binding assay (membranes, [125I] NDP-MSH displacement)
Conditions: hMC5R binding; tested as trifluoroacetate or hydrochloride salts, or free bases; read-out: MC5R radioligand IC50
Procedure, shortened: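 Displacement of [125I]NDP-MSH (radioiodinated in house, HPLC-purified) from hMC5R membranes by test compound measured after 1 hr incubation at 37° C.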

T1 sequence (P33032 whole entry): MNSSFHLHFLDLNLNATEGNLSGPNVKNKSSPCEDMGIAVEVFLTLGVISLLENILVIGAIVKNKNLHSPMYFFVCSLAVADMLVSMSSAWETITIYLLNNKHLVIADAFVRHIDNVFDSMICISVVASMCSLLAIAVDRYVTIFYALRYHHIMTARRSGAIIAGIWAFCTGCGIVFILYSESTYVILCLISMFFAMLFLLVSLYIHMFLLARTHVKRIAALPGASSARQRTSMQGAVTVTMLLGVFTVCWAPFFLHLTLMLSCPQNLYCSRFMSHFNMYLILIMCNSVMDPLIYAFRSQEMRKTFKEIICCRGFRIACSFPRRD

| Compound | pIC50 |
| --- | --- |
| O=C(NC[C@@H]1CCN(CC(c2ccccc2)c2ccccc2)C(=O)[C@H](CCCNC2CCCC2)N1)c1ccc2ccccc2c1 [Compound 246, N-(((3S,5S)-3-(3-(cyclopentylamino)propyl)-1-(2,2-diphenylethyl)-2-oxo-1,4-diazepan-5-yl)methyl)-2-naphthamide] | > 7.00 |
| CC1CC(C)CC(CN2CC[C@@H](CNC(=O)/C=C/c3ccc(Cl)cc3)N[C@@H](CCN)C2=O)C1 (stereo partly drawn) [Compound 377, (E)-N-(((3S,5S)-3-(2-aminoethyl)-1-((3,5-dimethylcyclohexyl)methyl)-2-oxo-1,4-diazepan-5-yl)methyl)-3-(4-chlorophenyl)acrylamide] | > 6.00 |
| CN(C)C(=O)C(CN1CC[C@@H](CNC(=O)c2ccc3ccccc3c2)N[C@@H](CCCNC(=N)N)C1=O)c1ccccc1 (stereo partly drawn) [Compound 307, N-(((3S,5S)-1-(3-(dimethylamino)-3-oxo-2-phenylpropyl)-3-(3-guanidinopropyl)-2-oxo-1,4-diazepan-5-yl)methyl)-2-naphthamide] | > 5.00 |
| CC[C@H](CN1CC[C@@H](CNC(=O)c2ccc(Cl)c(Cl)c2)N[C@@H](CCN(C)C(C)(C)C)C1=O)c1ccccc1 [Compound 454, N-(((3S,5S)-3-(2-(tert-butyl(methyl)amino)ethyl)-2-oxo-1-((S)-2-phenylbutyl)-1,4-diazepan-5-yl)methyl)-3,4-dichlorobenzamide] | > 7.00 |
| Cc1ccc(C)n1CC[C@@H]1N[C@H](CNC(=O)/C=C/c2ccc(Cl)cc2)CCN(CC(c2ccccc2)c2ccccc2)C1=O [Compound 404, (E)-3-(4-chlorophenyl)-N-(((3S,5S)-3-(2-(2,5-dimethyl-1 H-pyrrol-1-yl)ethyl)-1-(2,2-diphenylethyl)-2-oxo-1,4-diazepan-5-yl)methyl)acrylamide] | > 6.00 |

The remaining lines, values ahead:

| pIC50 | Compound |
| --- | --- |
| > 7.00 | CC[C@H](CN1CC[C@@H](CNC(=O)c2ccc(Cl)c(Cl)c2)N[C@@H](CCN2CCCCCC2)C1=O)c1ccccc1 [Compound 452, N-(((3S,5S)-3-(2-(azepan-1-yl)ethyl)-2-oxo-1-((S)-2-phenylbutyl)-1,4-diazepan-5-yl)methyl)-3,4-dichlorobenzamide] |
| > 6.00 | CC[C@H](CN1CC[C@@H](CNC(=O)c2ccc3cc(Cl)ccc3c2)N[C@@H](CCN)C1=O)C(C)C [Compound 470, N-(((3S,5S)-3-(2-aminoethyl)-1-((S)-2-ethyl-3-methylbutyl)-2-oxo-1,4-diazepan-5-yl)methyl)-6-chloro-2-naphthamide] |
| > 5.00 | O=C(/C=C/c1ccc(Cl)cc1)NC[C@@H]1CCN(CC(c2ccccc2)c2ccccc2)C(=O)[C@H](CNC(=O)C2CCCCC2)N1 [Compound 402, N-(((2S,7S)-7-(((E)-3-(4-chlorophenyl)acrylamido)methyl)-4-(2,2-diphenylethyl)-3-oxo-1,4-diazepan-2-yl)methyl)cyclohexanecarboxamide] |
| > 7.00 | CC[C@H](CN1CC[C@@H](CNC(=O)c2ccc(Cl)c(Cl)c2)N[C@@H](CCN2CC(C)CC(C)C2)C1=O)c1ccccc1 (stereo partly drawn) [Compound 449, 3,4-dichloro-N-(((3S,5S)-3-(2-(3,5-dimethylpiperidin-1-yl)ethyl)-2-oxo-1-((S)-2-phenylbutyl)-1,4-diazepan-5-yl)methyl)benzamide] |
| > 6.00 | NCCC[C@@H]1N[C@H](CNC(=O)COc2ccc(F)cc2)CCN(CC(c2ccccc2)c2ccccc2)C1=O [Compound 233, N-(((3S,5S)-3-(3-aminopropyl)-1-(2,2-diphenylethyl)-2-oxo-1,4-diazepan-5-yl)methyl)-2-(4-fluorophenoxy)acetamide] |
| > 7.00 | CCC(C)(CC)CN1CC[C@@H](CNC(=O)c2ccc(Cl)c(Cl)c2)N[C@@H](CCN2CCCCC2)C1=O [Compound 521, 3,4-dichloro-N-(((3S,5S)-1-(2-ethyl-2-methylbutyl)-2-oxo-3-(2-(piperidin-1-yl)ethyl)-1,4-diazepan-5-yl)methyl)benzamide] |
